What was measured:
zebrafish embryos = assay: Acute toxicity in zebrafish embryos (OECD FET No. 236); type: in vivo; conditions: 4c 25, 50, 100 μM; KA 100 μM; observed at 48 hpf
Procedure: The acute toxicity assay was conducted in accordance with the Guidelines of Organization for Economic Co-operation and Development (OECD) for the Testing of Chemicals, Fish Embryo Acute Toxicity (FET) Test, No. 236 ([OECD, 2013]). All zebrafish procedures in this study were approved by Anhui Medical University Experimental Animal Ethics Committee (Protocol No.: LLSC20241625). The zebrafish were maintained in accordance with the established protocols of the Zebrafish International Resource Center. Surviving zebrafish were humanely euthanized at the end of the study to prevent prolonged suffering. The euthanasia method involved immersion in a buffered solution of tricaine methanesulfonate at a concentration of 300 mg/L for at least 10 min, followed by confirmation of death through the cessation of gill movement and heartbeat. Carcasses were promptly frozen at −20 °C and disposed of through authorized biological waste channels.
Referring to published methods with certain modifications ([Qian et al., 2018]), 13–15 h post-fertilization (hpf) zebrafish embryos were placed in small dishes containing 5 mL of culture medium in this experiment. Different concentrations of 4c (25, 50, 100 μM) and KA (100 μM) were added to the dishes, respectively, and the experiments were repeated three times. […]

Escherichia coli = assay: Antibacterial activity, plate counting; type: cell-based; conditions: for antibacterial rate against E. coli: KA and THIQ groups, Fig. 7A
Procedure: (§1) The antibacterial activity of 4c against Escherichia coli (E. coli) and Staphylococcus aureus (S. aureus) was evaluated using a modified plate counting method based on literature reports ([Ruan et al., 2024]). In this process, the strains were first activated on LB agar medium at 37 °C for 18 h. Subsequently, bacterial suspensions (1 × 10^8 CFU/mL) were prepared in fresh nutrient broth medium according to the 0.5 McFarland turbidity standard. These suspensions were then diluted to 1 × 10^5 CFU/mL for antibacterial testing. Various concentrations of 4c solutions were prepared and mixed with the 1 × 10^5 CFU/mL bacterial suspensions, with equal volumes of physiological saline added to the control group. The mixtures were incubated at 37 °C for 12 h, serially diluted, plated (100 μL) onto plate count agar medium, and incubated for 24 h at 37 °C for colony counting. Each experiment was conducted in triplicate, and the antibacterial rate was calculated using the following formula (2):(2) BacterialInhibitionrate(%)=(1−XS/X0)×100% where X0 represented the bacterial colony count of the control group post 24-h incubation, while XS denoted the average bacterial colony count of the sample group.

Staphylococcus aureus = assay: Antibacterial activity, plate counting; type: cell-based; conditions: for antibacterial rate against S. aureus: KA and THIQ groups, Fig. 7A
Procedure: as §1

tyrosinase [1] = conditions: ref Zhang et al., 2025; cited from earlier work
tyrosinase [2] = assay: UV spectra measurement; type: binding; conditions: addition of 4c
Procedure: Following the reported methods ([Chen et al., 2022]), a 3 mL assay system was established by adding a solution of 4c (300 μM, 350 μL) and tyrosinase solution (200 U/mL, 400 μL) to 2250 μL of PBS at pH 6.8. Spectral measurements were carried out using a UV-1800 spectrophotometer with wavelength scanning from 200 to 400 nm. Three experimental controls were implemented: (1) PBS buffer as blank reference, (2) 4c solution in PBS without enzyme, and (3) enzyme solution in PBS without 4c. To ensure measurement reliability, all spectra were acquired in triplicate through independent scanning processes. Background corrections were systematically applied using corresponding control solutions for each experimental condition.

Botrytis cinerea = assay: Antifungal activity, radial growth on PDA; type: cell-based; conditions: 4c at high concentrations (5, 15, 30 μg/mL tested), 72 h
Procedure: Fungal contamination is a major cause of food spoilage. To evaluate the antifungal potential of 4c, its efficacy against the common phytopathogen Botrytis cinerea (B. cinerea) was investigated ([Zhou et al., 2025]). The assay was performed as follows: B. cinerea was first cultivated on Potato Dextrose Agar (PDA) to ensure robust growth. Subsequently, 4c was prepared at various concentrations and incorporated into PDA to form a drug-containing medium. Fungal mycelia were then inoculated onto the center of both the treatment and control plates, with the latter containing an equal volume of physiological saline instead of the compound. All plates were incubated at 27 °C for 72 h. Following incubation, the colonial growth on each Petri dish was photographed, with particular attention to the mycelial morphology and expansion. The antifungal activity was quantified by measuring the radial growth of the fungus, and the inhibition rate was calculated according to formula (3):(3) FungalInhibitionrate(%)=(1−DS/D0)×100% where D0 is the growth size of the control group, DS is the growth size of the group containing the sample group.

tyrosinase [3] = assay: ANS-binding fluorescence measurement; conditions: 4c from 0 μM to 50 μM
Procedure: An equal volume of ANS solution (80 μM) was added to the tyrosinase solution (400 U/mL). After thorough mixing, the mixture was left to stand at room temperature for 30 min. Subsequently, a specific amount of the ANS-labeled tyrosinase solution was extracted, vigorously shaken, and 4c was incrementally added dropwise to this mixture. The fluorescence spectrum of the mixture was scanned under conditions of an excitation wavelength of 390 nm, an emission slit width of 5 nm, and an emission wavelength range of 400–600 nm ([Lü et al., 2010]).

[4] = Stability evaluation (HPLC content); type: physicochemical
Procedure: The purpose of stability testing is to provide evidence on how the quality of an active substance varies with time under the influence of a variety of environmental factors such as temperature, humidity, and light. Compound 4c with the strongest activity was evaluated for its stability. 4c was first dissolved in acetonitrile to prepare a 100 mM stock solution. This stock solution was then diluted to a 10 mM working concentration using different pH buffer solutions (4.0, 7.0 and 9.0). The samples were aliquoted into sealed vials. These vials were placed at different temperatures (25 °C, 40 °C and 60 °C) under both light-exposed and light-protected conditions for stability testing. The content change of the compound was monitored at scheduled time intervals (0 h, 24 h and 72 h) using an HPLC method.

tyrosinase [5] = target: tyrosinase (Agaricus bisporus, UniProt C7FF04); assay: Kinetic analysis (Lineweaver-Burk plots, L-DOPA); type: biochemical, mushroom
Procedure: Reaction rates were determined using different concentrations of compounds (1.25, 2.5, and 5 μM) and L-DOPA solutions (0.5, 1, 1.5, and 2 mM).

fresh-cut mushrooms = assay: Anti-browning study on fresh-cut mushrooms; design: species or system button mushrooms; conditions: 100 μM sprayed, 4 °C, 7-day storage; versus KA and control
Procedure: Fresh and clean mushrooms of appropriate size were purchased from the local supermarket and their surfaces were evenly trimmed. […] CIE Lab values (L∗, a∗, and b∗) were measured using a colorimeter (NR60CP) to monitor the color changes of the fresh-cut mushrooms ([Wang et al., 2023]). The browning progression on mushroom surfaces was monitored via daily photographic documentation. The anti-browning efficacy was quantified using the total color difference (ΔE), calculated according to formula (4):(4) ΔE=[(Lt∗−Linitial∗)^2+(at∗−ainitial∗)^2+(bt∗−binitial∗)^2]^0.5

tyrosinase [6] = assay: Fluorescence quenching of tyrosinase; type: binding
Procedure: Fluorescence intensity quantification was performed on a spectrofluorometer (Cary Eclipse) following a literature-established protocol ([Peng et al., 2021]), a tyrosinase solution (200 U/mL) was prepared in phosphate buffer (pH = 6.8). Incremental volumes of 4c solution at identical concentrations were added to the enzyme solution. With an excitation wavelength of 280 nm, an emission slit width of 5 nm, and the mixture was recorded in the 290–450 nm emission wavelength range.

[7] = 4c at high concentrations (5, 15, 30 μg/mL tested)
[8] = plot of log[(F0−F)/F] against log[I]

Sequence of tyrosinase (Agaricus bisporus, UniProt C7FF04) (C7FF04 1-392): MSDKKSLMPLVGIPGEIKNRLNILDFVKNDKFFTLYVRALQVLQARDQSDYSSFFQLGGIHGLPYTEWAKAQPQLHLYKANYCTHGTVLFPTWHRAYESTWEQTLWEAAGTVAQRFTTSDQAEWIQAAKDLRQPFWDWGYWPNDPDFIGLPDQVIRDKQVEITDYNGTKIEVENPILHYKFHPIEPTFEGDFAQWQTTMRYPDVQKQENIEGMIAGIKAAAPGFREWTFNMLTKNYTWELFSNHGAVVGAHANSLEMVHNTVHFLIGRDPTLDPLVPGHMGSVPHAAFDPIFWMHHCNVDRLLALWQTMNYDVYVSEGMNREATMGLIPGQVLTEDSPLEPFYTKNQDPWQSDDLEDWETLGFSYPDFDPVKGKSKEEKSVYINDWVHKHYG

O=c1cc(CO)occ1O [Kojic acid]
acute toxicity in zebrafish embryos (zebrafish embryos): partial mortality | antibacterial rate against E. coli (Escherichia coli): low antibacterial rates | antibacterial rate against S. aureus (Staphylococcus aureus): low antibacterial rates

Oc1ccccc1-c1nnc(S)o1 [Compound 2f, 5-(2-hydroxyphenyl)-1,3,4-oxadiazole-2-thiol]
IC50 (tyrosinase [1]): 17.7 ± 0.21 µM

c1ccc2c(c1)CCNC2 [THIQ, tetrahydroisoquinoline]
antibacterial rate against E. coli (Escherichia coli): low antibacterial rates | antibacterial rate against S. aureus (Staphylococcus aureus): low antibacterial rates

COc1ccc2c(c1)CCN(Cc1cc(=O)c(O)co1)C2 [Compound 4c]
characteristic absorption peak of tyrosinase at 280 nm (tyrosinase [2]): significant decrease | acute toxicity in zebrafish embryos (zebrafish embryos): no significant toxic effects | inhibition rate against B. cinerea (Botrytis cinerea): ~90% | inhibition rate against E. coli (Escherichia coli; [7]): ~100% | inhibition rate against S. aureus (Staphylococcus aureus; [7]): ~100% | maximum fluorescence intensity of ANS-TYR (tyrosinase [3]): gradually increased | content (stability testing) ([4]; 25℃, pH 4, 0 h): 97.01% | content (stability testing) ([4]; 25℃, pH 4, 24 h): 98.10% | content (stability testing) ([4]; 25℃, pH 4, 72 h): 98.32% | content (stability testing) ([4]; 25℃, pH 7, 0 h): 98.63% | content (stability testing) ([4]; 25℃, pH 7, 24 h): 97.48% | content (stability testing) ([4]; 25℃, pH 7, 72 h): 98.03% | content (stability testing) ([4]; 25℃, pH 9, 0 h): 97.43% | content (stability testing) ([4]; 25℃, pH 9, 24 h): 97.48% | content (stability testing) ([4]; 25℃, pH 9, 72 h): 97.59% | content (stability testing) ([4]; 40℃, pH 4, 0 h): 97.02% | content (stability testing) ([4]; 40℃, pH 4, 24 h): 97.50% | content (stability testing) ([4]; 40℃, pH 4, 72 h): 97.41% | content (stability testing) ([4]; 40℃, pH 7, 0 h): 97.56% | content (stability testing) ([4]; 40℃, pH 7, 24 h): 96.04% | content (stability testing) ([4]; 40℃, pH 7, 72 h): 97.75% | content (stability testing) ([4]; 40℃, pH 9, 0 h): 96.51% | content (stability testing) ([4]; 40℃, pH 9, 24 h): 95.00% | content (stability testing) ([4]; 40℃, pH 9, 72 h): 96.12% | content (stability testing) ([4]; 60℃, pH 7, 0 h): 96.64% | content (stability testing) ([4]; 60℃, pH 7, 24 h): 96.84% | content (stability testing) ([4]; 60℃, pH 7, 72 h): 96.62% | content (stability testing) ([4]; 60℃, pH 9, 0 h): 96.61% | content (stability testing) ([4]; 60℃, pH 9, 24 h): 96.04% | content (stability testing) ([4]; 60℃, pH 9, 72 h): 96.26% | content (stability testing) ([4]; Light, pH 7, 0 h): 96.64% | content (stability testing) ([4]; Light, pH 7, 24 h): 96.84% | content (stability testing) ([4]; Light, pH 7, 72 h): 96.62% | content (stability testing) ([4]; Light, pH 9, 0 h): 96.61% | content (stability testing) ([4]; Light, pH 9, 24 h): 96.04% | content (stability testing) ([4]; Light, pH 9, 72 h): 96.26% | retention rate ([4]; after 72 h, all pH (4.0, 7.0, 9.0) and temperatures (25, 40, 60 °C)): > 95% | Ki (tyrosinase [5]; L-DOPA substrate, slope replot, read-out: inhibition constant Ki for free enzyme): 1.48 µM | inhibition type (tyrosinase [5]; Lineweaver-Burk plots): mixed-type inhibitor | L∗ (lightness) of fresh-cut mushrooms (fresh-cut mushrooms): highest L∗ value | total color difference ΔE of fresh-cut mushrooms (fresh-cut mushrooms): lowest ΔE value | relative fluorescence intensity (tyrosinase [6]; 25 μM 4c): 52% | fluorescence intensity of tyrosinase (tyrosinase [6]; 25 μM 4c, 146.61 without inhibitor, emission peak 354 nm): 76.92 | fluorescence quenching mechanism (tyrosinase [6]; Kq versus maximum dynamic quenching constant): static quenching | Stern-Volmer quenching constant Ksv (tyrosinase [6]; Stern-Volmer plot): 43000 L/mol | bimolecular quenching constant Kq (tyrosinase [6]; Stern-Volmer plot): 4.3 × 10^12 L mol^−1 S^−1 | apparent binding constant Ka (tyrosinase [6]; [8]): 15100 L/mol | number of binding sites n (tyrosinase [6]; [8]): 1.11
